{
  "source": "patent US9554988B2",
  "about": "“Method for preventing or treating skin tumor” (Galderma Research & Development, priority 2010, dated 2017)",
  "key": {"[1]": {"test_system": "human tumor epithelial breast cell lines or mouse mammary tumor cell line", "conditions": "activation of alpha-adrenoceptors; Vazquez et al. 2006, Bruzzone et al. 2008; cited from earlier work"}, "[2]": {"test_system": "pancreatic cancer cells", "conditions": "Shen et al. 2008; cited from earlier work"}, "[3]": {"test_system": "Albino hairless SKH1-hr mice", "conditions": "for Median Week to Tumor (≧1 mm): 40 weeks treatment + 12 weeks observation, time at which one-half of group has one or more qualifying tumors; for Tumor Yield (≧1 mm): average number of tumors per survivor", "protocol": "Albino hairless SKH1-hr mice (36/sex/group) were treated for 40 weeks with UVR and brimonidine gel or vehicle according to the design in table 11. […] Topical treatments were performed approximately one hour before UVR on Monday, Wednesday and Friday of each week and approximately one hour after UVR Tuesday and Thursday of each week."}, "[4]": {"conditions": "0.18% topical + 600 RBU/week UVR"}},
  "note": "Like-named read-outs stand apart in the source and are kept apart here.",
  "data": [
    {"compound": "Cc1cccc([C@H](C)c2cnc[nH]2)c1C", "note": "[dexmedetomidine]", "values": [
      {"measurement": "Proliferation of tumor cell lines", "setting": "[1]", "result": "enhanced proliferation"}
    ]},
    {"compound": "COC(=O)[C@@H]1[C@H]2C[C@H]3c4[nH]c5ccccc5c4CCN3C[C@@H]2CC[C@@H]1O", "note": "[yohimbine]", "values": [
      {"measurement": "Apoptosis of pancreatic cancer cells", "setting": "[2]", "result": "induced apoptosis"},
      {"measurement": "Proliferation of pancreatic cancer cells", "setting": "[2]", "result": "inhibited the proliferation"}
    ]},
    {"compound": "Brimonidine tartrate", "values": [
      {"measurement": "Reduction of tumor yield (≧1 mm) compared to the vehicle group", "setting": "[3]; [4]", "result": 1.7, "unit": "fold"},
      {"measurement": "Median Week to Tumor (≧1 mm)", "setting": "[3]; [4]", "result": 48, "unit": "Week"},
      {"measurement": "Tumor Yield (≧1 mm)", "setting": "[3]; [4]", "result": 2.40, "unit": "tumors per survivor"},
      {"measurement": "Members of the group that acquired one or more qualifying tumors (≧1 mm) within the 52-week study period", "setting": "[3]; 1% topical + 600 RBU/week UVR", "result": "less than one-half of the members of the groups acquired one or more qualifying tumors"},
      {"measurement": "Reduction of tumor yield (≧1 mm) compared to the vehicle group", "setting": "[3]; 1% topical + 600 RBU/week UVR", "result": 4.7, "unit": "fold"},
      {"measurement": "Median Week to Tumor (≧1 mm)", "setting": "[3]; 1% topical + 600 RBU/week UVR", "result": ">52", "unit": "Week"},
      {"measurement": "Tumor Yield (≧1 mm)", "setting": "[3]; 1% topical + 600 RBU/week UVR", "result": 0.85, "unit": "tumors per survivor"},
      {"measurement": "Members of the group that acquired one or more qualifying tumors (≧1 mm) within the 52-week study period", "setting": "[3]; 2% topical + 600 RBU/week UVR", "result": "less than one-half of the members of the groups acquired one or more qualifying tumors"},
      {"measurement": "Reduction of tumor yield (≧1 mm) compared to the vehicle group", "setting": "[3]; 2% topical + 600 RBU/week UVR", "result": 8.1, "unit": "fold"},
      {"measurement": "Median Week to Tumor (≧1 mm)", "setting": "[3]; 2% topical + 600 RBU/week UVR", "result": ">52", "unit": "Week"},
      {"measurement": "Tumor Yield (≧1 mm)", "setting": "[3]; 2% topical + 600 RBU/week UVR", "result": 0.49, "unit": "tumors per survivor"},
      {"measurement": "UV-induced skin tumor formation", "setting": "[3]; topical 0.18%, 1% and 2% concentrations", "result": "dose-dependent delay"},
      {"measurement": "Sizes of tumors (tumor prevalence, FIG. 1)", "setting": "[3]; with increasing concentration, perceptible, 1 mm, 2 mm, 4 mm tumors, sexes combined", "result": "sizes of tumors were also reduced"}
    ]},
    {"compound": "Clc1cccc(Cl)c1N=C1NCCN1", "note": "[clonidine]", "values": [
      {"measurement": "Proliferation of tumor cell lines", "setting": "[1]", "result": "enhanced proliferation"}
    ]},
    {"compound": "Cc1cc(C(C)(C)C)c(O)c(C)c1CC1=NCCN1", "note": "[oxymetazoline]", "values": [
      {"measurement": "Proliferation of tumor cell lines", "setting": "[1]", "result": "enhanced proliferation"}
    ]}
  ]
}
